What is called Ki is the dissociation constant of the complex between target and ligand, obtained from inhibition or displacement. High values mean lower affinity, low ones higher affinity.

We go through 20 compounds from BindingDB's records for doi:10.1074/jbc.M113.521955 (Albert Einstein College of Medicine, 2013).

Assay [1] concerns the target T1, Uridine 5'-monophosphate synthase (Homo sapiens, UniProt P11172).
T1 sequence (P11172 whole entry): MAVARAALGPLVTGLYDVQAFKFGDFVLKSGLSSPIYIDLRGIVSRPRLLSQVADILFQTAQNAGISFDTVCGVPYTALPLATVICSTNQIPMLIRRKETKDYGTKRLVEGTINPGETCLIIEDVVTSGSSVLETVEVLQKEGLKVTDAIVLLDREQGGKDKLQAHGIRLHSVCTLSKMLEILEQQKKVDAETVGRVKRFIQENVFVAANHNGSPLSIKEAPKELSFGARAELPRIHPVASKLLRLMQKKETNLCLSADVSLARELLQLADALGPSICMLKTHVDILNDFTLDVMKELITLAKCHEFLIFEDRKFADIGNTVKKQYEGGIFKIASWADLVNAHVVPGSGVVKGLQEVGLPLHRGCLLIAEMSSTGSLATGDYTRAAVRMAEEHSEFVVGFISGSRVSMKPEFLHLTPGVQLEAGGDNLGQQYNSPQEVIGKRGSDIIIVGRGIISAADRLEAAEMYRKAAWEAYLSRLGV
As to the kind of experiment: Inhibition Assay. The note with it: pH 8; 25 °C. The method, then: (§1) In all cases, the inhibitor concentration was at least 10 times the enzyme concentration. Reaction rates were monitored through the absorbance increase at 295 nm to give an extinction coefficient of 3.67 mM-1 cm-1 [Abdo et al., Org. Lett., 12:2982-2985].

The target in assay [2] is T2, Orotate phosphoribosyltransferase (Plasmodium falciparum (isolate 3D7), UniProt Q8I3Y0).
T2 sequence (Q8I3Y0 whole entry): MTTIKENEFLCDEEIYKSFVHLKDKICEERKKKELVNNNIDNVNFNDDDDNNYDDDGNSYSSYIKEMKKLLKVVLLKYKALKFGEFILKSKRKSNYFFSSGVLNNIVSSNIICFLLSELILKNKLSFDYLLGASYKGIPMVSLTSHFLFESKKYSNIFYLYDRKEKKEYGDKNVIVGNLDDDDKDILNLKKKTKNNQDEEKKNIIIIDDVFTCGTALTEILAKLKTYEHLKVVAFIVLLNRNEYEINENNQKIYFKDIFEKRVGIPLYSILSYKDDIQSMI
The assay can be described thus: Inhibition Assay. The note with it: pH 8; 25 °C. As to the method: as §1

As to `O=[N+]([O-])c1ccc(O[C@@H]2O[C@H](COP(=O)(O)O)C(O)C2O)cc1` (stereo not given in full) [OPRT inhibitor, 2], the Ki in assay [1] was found to be 41 nM; in assay [2] it was 40 nM.

In the case of `O=[N+]([O-])c1ccc(O[C@@H]2O[C@H](CO)C(O)C2O)cc1` (stereo not given in full) [OPRT inhibitor, 1], the Ki in assay [1] turned out to be 120 nM; in assay [2] it was 190 nM.

With `O=C(O)c1ccncc1[C@@H]1N[C@H](COP(=O)(O)O)C(O)C1O` (stereo not given in full) [OPRT inhibitor, 12], the results for the Ki in assay [1] and in assay [2] were 4300 nM and 15500 nM, respectively.

For `O=C(O)c1cc(=O)[nH]c(=O)n1CCN1CC(O)C(O)[C@H]1CO` (stereo not given in full) [OPRT inhibitor, 10], the Ki in assay [1] is 290 nM; in assay [2], 690 nM.

On to `O=[N+]([O-])c1ccc(CN2CC(O)[C@@H](CO)C2)cc1` (stereo not given in full) [OPRT inhibitor, 17], for which the Ki in assay [1] stood at 200 nM; in assay [2] it was 750 nM.

`O=c1[nH]c(=O)n(CCN2CC(O)C(O)[C@H]2CO)cc1Br` (stereo not given in full) [OPRT inhibitor, 9]: the Ki in assay [1] amounted to 80 nM; in assay [2], 270 nM.

Regarding `O=C(O)c1[nH]c(=O)[nH]c(=O)c1CN1CCCC1` [OPRT inhibitor, 13], the values for the Ki in assay [1] and in assay [2] were 250 nM and 470 nM, respectively.

Turning to `O=c1[nH]c(=O)n(CCN2CC(O)[C@@H](CO)C2)cc1Br` (stereo not given in full) [OPRT inhibitor, 11], the Ki in assay [1] came to 520 nM; in assay [2], 1300 nM.

For `O=C(O)c1[nH]c(=O)[nH]c(=O)c1CN1CC(O)[C@@H](CO)C1` (stereo not given in full) [OPRT inhibitor, 14], the Ki in assay [1] was determined as 83 nM; in assay [2], 220 nM.

For `O=C1c2cc(=O)[nH]c(=O)n2C[C@H]2C(O)C(O)[C@@H](CO)N12` (stereo not given in full) [OPRT inhibitor, 7], the Ki in assay [1] was found to be 110 nM; in assay [2], 270 nM.

In the case of `N#Cc1cc(=O)[nH]c(=O)n1C[C@@H]1N[C@H](COP(=O)(O)O)C(O)C1O` (stereo not given in full) [OPRT inhibitor, 6], the Ki in assay [1] was 140 nM; in assay [2] it was 350 nM.

In the case of `O=C1c2cc(=O)[nH]c(=O)n2C[C@H]2C(O)C(O)[C@@H](COP(=O)(O)O)N12` (stereo not given in full) [OPRT inhibitor, 8], the figures for the Ki in assay [1] and in assay [2] were 90 nM and 170 nM, respectively.

Take `N#Cc1cc(=O)[nH]c(=O)n1C[C@@H]1N[C@H](CO)C(O)C1O` (stereo not given in full) [OPRT inhibitor, 5]: the results for the Ki in assay [1] and in assay [2] were 360 nM and 300 nM, respectively.

Take `O=C(O)c1[nH]c(=O)[nH]c(=O)c1CN1CC(O)[C@@H](COP(=O)(O)O)C1` (stereo not given in full) [OPRT inhibitor, 15]: the Ki in assay [1] came to 240 nM; in assay [2] it was 500 nM.

Consider `O=[N+]([O-])c1ccc(CCNC(CO)CO)cc1` [OPRT inhibitor, 20], for which the values for the Ki in assay [1] and in assay [2] were 120 nM and 510 nM, respectively.

As for `O=[N+]([O-])c1ccc(CCN2CC(O)[C@@H](CO)C2)cc1` (stereo not given in full) [OPRT inhibitor, 18], the Ki in assay [1] was 230 nM; in assay [2], 570 nM.

With `O=c1[nH]c(=O)n(C[C@@H]2N[C@H](CO)C(O)C2O)cc1Br` (stereo not given in full) [OPRT inhibitor, 3], the Ki in assay [1] came to 530 nM; in assay [2] it was 350 nM.

On to `O=[N+]([O-])c1ccc([C@@H]2N[C@H](CO)C(O)C2O)cc1` (stereo not given in full) [OPRT inhibitor, 16], for which the Ki in assay [1] was 230 nM; in assay [2] it was 480 nM.

Consider `O=c1[nH]c(=O)n(C[C@@H]2N[C@H](COP(=O)(O)O)C(O)C2O)cc1Br` (stereo not given in full) [OPRT inhibitor, 4], for which the Ki in assay [1] is 200 nM; in assay [2], 370 nM.

On to `O=[N+]([O-])c1ccc(CNC(CO)CO)cc1` [OPRT inhibitor, 19], for which the Ki in assay [1] came out at 150 nM; in assay [2] it was 500 nM.
